Results published in publication PMC7169394, “Binding Constants of Substituted Benzoic Acids with Bovine Serum Albumin” (Pharmaceuticals, 2020).
Read-outs that look alike come from different tables or passages of the source.

Legend:
[1] = target: bovine serum albumin (BSA) (Bos taurus, UniProt P02769); test: biochemical; type: binding
[2] = system: human serum albumin (HSA); settings: SF, 298 K; cited from earlier work
[3] = system: BSA; settings: SF, 298 K; cited from earlier work
[4] = system: BSA; parameters: method as in PMID 5677620; settings: SP, 310 K; cited from earlier work
[5] = system: BSA; settings: UC, cited from earlier work
[6] = system: BSA; settings: CE, 298 K; cited from earlier work
[7] = system: BSA; parameters: method as in PMID 27098963; settings: ED, 310 K; cited from earlier work
[8] = system: human serum albumin (HSA); parameters: method as in PMID 3664856; settings: UC, 288 K; cited from earlier work
[9] = 298 K, phosphate buffer pH 7.4, 0.05 M, BSA about 1 µM, 1:1 model, standard state 1 M, […], read-out: K∙10^−4 (binding constant with BSA, final corrected value) (converted)
[10] = 298 K, phosphate buffer pH 7.4, 0.05 M, BSA about 1 µM, 1:1 model, standard state 1 M, value is K multiplied by 10^−4, read-out: K∙10^−4 (binding constant with BSA, final corrected value) (converted)

bovine serum albumin (BSA), sequence (P02769 25-607): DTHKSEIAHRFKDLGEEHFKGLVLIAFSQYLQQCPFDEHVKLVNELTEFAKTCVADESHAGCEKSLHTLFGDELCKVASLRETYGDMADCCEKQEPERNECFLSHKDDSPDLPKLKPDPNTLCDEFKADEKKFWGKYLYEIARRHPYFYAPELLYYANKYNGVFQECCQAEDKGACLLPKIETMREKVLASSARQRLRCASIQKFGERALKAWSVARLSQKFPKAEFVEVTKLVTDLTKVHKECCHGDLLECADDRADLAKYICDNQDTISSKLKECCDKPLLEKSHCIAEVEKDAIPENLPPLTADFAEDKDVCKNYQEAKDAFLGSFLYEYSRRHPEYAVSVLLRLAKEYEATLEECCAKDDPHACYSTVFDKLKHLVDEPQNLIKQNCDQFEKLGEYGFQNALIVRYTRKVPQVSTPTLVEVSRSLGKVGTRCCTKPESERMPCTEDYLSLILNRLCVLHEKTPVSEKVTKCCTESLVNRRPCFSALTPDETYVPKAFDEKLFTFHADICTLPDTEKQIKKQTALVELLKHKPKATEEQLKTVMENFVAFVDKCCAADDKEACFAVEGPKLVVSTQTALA

O=C(O)c1ccc(O)cc1O [2,4-dihydroxybenzoic acid]
Kd [1]: 32.3 µM
K·10^−4 HSA [2]: 0.16 (SF) [10]
K·10^−4 BSA [3]: <0.1 (SF) [11]

Nc1ccccc1C(=O)O [2-aminobenzoic acid]
Kd [1, 9]: 43.5 µM
K·10^−4 BSA [4]: 0.63 (SP, 310 K) [9]

O=C(O)c1ccccc1Br [2-bromobenzoic acid]
Kd [1]: 43.5 µM
K·10^−4 BSA ([5]; 310 K): 3.98 (UC, 310 K) [9]

N#Cc1ccccc1C(=O)O [2-cyanobenzoic acid]
Kd [1]: 38.5 µM

O=C(O)c1ccccc1F [2-fluorobenzoic acid]
Kd [1, 9]: 30.3 µM

O=C(O)c1ccccc1O [2-hydroxybenzoic acid]
K·10^−4 BSA [6]: 3.92
K·10^−4 HSA [2]: 190
K·10^−4 BSA [3]: 7.38
K·10^−4 BSA [4]: 10.0

O=C(O)c1ccccc1I [2-iodobenzoic acid]
Kd [1, 10]: 30.3 µM

O=C(O)c1ccccc1[N+](=O)[O-] [2-nitrobenzoic acid]
Kd [1]: 47.6 µM

Nc1cccc(C(=O)O)c1 [3-aminobenzoic acid]
Kd [1]: 71.4 µM
K·10^−4 BSA [4]: 0.32 (SP, 310 K) [9]

O=C(O)c1cccc(Br)c1 [3-bromobenzoic acid]
Kd [1, 10]: 28.6 µM
K·10^−4 BSA ([5]; 310 K): 63.1 (UC, 310 K) [9]

O=C(O)c1cccc(Cl)c1 [3-chlorobenzoic acid]
Kd [1]: 17.2 µM
K·10^−4 BSA [7]: 11.22 (ED, 310 K) [24]

N#Cc1cccc(C(=O)O)c1 [3-cyanobenzoic acid]
Kd [1]: 25.6 µM

O=C(O)c1cccc(O)c1 [3-hydroxybenzoic acid]
Kd [1]: 52.6 µM
K·10^−4 HSA [2]: 0.34 (SF) [10]
K·10^−4 BSA [3]: 0.85
K·10^−4 BSA [4]: 5.01

O=C(O)c1cccc(I)c1 [3-iodobenzoic acid]
Kd [1, 10]: 19.6 µM

O=C(O)c1cccc([N+](=O)[O-])c1 [3-nitrobenzoic acid]
Kd [1, 9]: 12.8 µM

O=C(O)c1ccc(Br)cc1 [4-bromobenzoic acid]
Kd [1, 10]: 18.5 µM
K·10^−4 BSA ([5]; 310 K): 20.0
K·10^−4 BSA [7]: 20.42

N#Cc1ccc(C(=O)O)cc1 [4-cyanobenzoic acid]
K·10^−4 BSA ([5]; 288 K): 1.66 (UC, 288 K) [8]

O=C(O)c1ccc(O)cc1 [4-hydroxybenzoic acid]
Kd [1]: 100 ± 10 µM
K·10^−4 BSA ([5]; 288 K): 0.68
K·10^−4 HSA [8]: 0.45
K·10^−4 HSA [2]: < 0.1
K·10^−4 BSA [3]: < 0.1
K·10^−4 BSA [4]: 0.79

O=C(O)c1ccc(I)cc1 [4-iodobenzoic acid]
Kd [1, 10]: 24.4 µM

Cc1ccc(C(=O)O)cc1 [4-methylbenzoic acid]
Kd [1]: 71.4 µM
K·10^−4 BSA ([5]; 288 K): 6.76
K·10^−4 BSA [7]: 3.16
K·10^−4 HSA [8]: 3.63
K·10^−4 HSA [2]: 0.35
K·10^−4 BSA [3]: < 0.1
K·10^−4 BSA [4]: 7.94

O=C(O)c1ccc([N+](=O)[O-])cc1 [4-nitrobenzoic acid]
Kd [1]: 12.3 µM
K·10^−4 BSA ([5]; 288 K): 6.03
K·10^−4 BSA [7]: 3.09
K·10^−4 HSA [8]: 8.13 (UC, 288 K) [8]

O=C(O)c1ccccc1 [benzoic acid]
Kd [1]: 52.6 µM
K·10^−4 BSA ([5]; 288 K): 2.24
K·10^−4 BSA [7]: 1.15
K·10^−4 HSA [8]: 2.29 (UC, 288 K) [8]
K·10^−4 BSA [4]: 5.01
